Experimental findings from article PMC5555576, “Selective small-chemical inhibitors of protein arginine methyltransferase 5 with anti-lung cancer activity” (PLoS ONE, 2017) are described below.

The structures appear in SMILES notation.

For series [1], the system named is A549 cells. In words: Cellular permeability and stability by HPLC of cell extracts. It is filed as in vitro ADME. The settings on record: for decrease of concentration inside the cells: 20 μM for 2 h, within 10 h after removal; for concentration inside cells compared with the medium: 2 h; for cell permeability: 2 hr in medium with compound. The method, then: Waters 2695 HPLC System and a C18 column (Symmetry, 3.6 x 75 mm) were used. The column was equilibrated with 10% acetonitrile and eluated with a linear gradient from 10% acetonitrile to 100% acetonitrile in 60 min. Compounds were dissolved in 10% acetonitrile and the purchased compounds (ChemBridge) were used as the standards.
We then determined whether the identified compounds are cell-permeable. Lung cancer A549 cells were cultured in medium containing various concentrations of the respective compound for 2 hr. Cells were harvested and washed with PBS. The compounds were extracted with ethyl acetate from cells and analyzed by HPLC with a C18 column using the purchased compound as the standard. Compounds C2, C5, C9 and C11 are cell-permeable (Fig 6A), which is consistent with their tPSAs <140 angstroms square (Table 1). […] We even noticed that the compound C5 crystalized inside the cells.
A, The cellular permeability of identified compounds. Lung cancer A549 cells were cultured in the presence of various concentrations of compounds for 2h and the compound concentrations in the cell were determined by HPLC chromatography with a C18 column. B, The cellular stability of identified compounds. Lung cancer A549 cells were cultured in the presence of compounds (20 μM) for 2 h and then the medium was removed. Cells were washed with the medium and cultured for additional 5 or 10 h after the compounds were removed. The compound concentrations in the cell were determined by HPLC chromatography with a C18 column. […] A549 cells were grown in the presence of DMSO or compound C5, C9 or C11 (20 μM). Histones were purified and analyzed by SDS-PAGE stained with Commassie blue (lanes 1–4, bottom) or by Western blot with anti-symmetric dimethyl arginine antibody (SYM10) (lanes 1–4, top). B-Raf was immunoprecipitated with anti-B-Raf antibody from whole cell lysates and submitted for Western blot analysis with anti-B-Raf (lanes 5 and 6, bottom) or anti-symmetric dimethyl arginine (lanes 5 and 6, top) antibody.

Series [2] in a line: Plasma concentrations after administration, LC-MS/MS. It is filed as in vivo, BALB/c mice. The settings on record: mouse. The procedure: Male BALB/c mice (8–10 weeks old) were purchased from Charles River Laboratory and were randomized for compound administration. Chemical compounds were dissolved in 0.1 ml of 0.5% (w/v) carboxymethycellulose (Sigma-Aldrich) plus 0.5% Tween 80 (Fisher Scientific) and administrated by oral gavage at the dosage of 50 mg/kg or 100 mg/kg. Mice were sacrificed and blood samples were collected immediately before (n = 5) and at 2 (n = 5), 4 (n = 5), 6 (n = 5) or 8 (n = 8) h after compound administration. Plasma samples were sent to the Pharmaceutical Development Center at MD Anderson Cancer Center for LC-MS/MS assay to determine compound concentrations.
Supplementary file pone.0181601.s001.tif: S1 Fig The serum concentrations of compound C9. The chemical compound was dissolved in 5% DMSO-0.5% Tween 80. BALB/c mice (8–10 weeks old) were randomized and administrated the vehicle (0.1 ml) or compound C9 dissolved in the vehicle (0.1 ml) by intraperitoneal (I.P.) injection at the dosage of 25, 50 or 100 mg/kg. Mice were sacrificed and blood samples were collected immediately before (0 h, n = 5) and at 2 (n = 5), 4 (n = 5), 6 (n = 5) and 8 (n = 5) h after compound administration. Plasma samples were sent to the Pharmaceutical Development Center at MD Anderson Cancer Center for LC-MS/MS assay to determine compound concentrations. (TIF) Click here for additional data file.

Series [3] relates to CDK2 (Rb pT821) in A549 cells. Description: Western blot of Rb phosphorylation at T821. In kind it is cell-based. The settings on record: 20 μM, 4 h. An excerpt:
(§1) The retinoblastoma protein (Rb) is phosphorylated by CKDs in cells.
(§2) (TIF) Click here for additional data file.
A general note: In western blotting, separated proteins are transferred to a membrane and probed.

Series [4] has as its system CDK4/6 (Rb pS811) in A549 cells. In words: Western blot of Rb phosphorylation at S811. It is filed as cell-based. The conditions noted are these: 20 μM, 4 h.
Text: as §1, §2

For `CCn1c(=O)[nH]c2cc(C(=O)Nc3ccc(OC)cc3)ccc2c1=O` [Compound C5], in series [1], the “decrease of concentration inside the cells” value (from here on “decrease”) is “about 2 folds”, the “concentration inside cells compared with the medium” value is “higher than those in the medium” and the cell permeability entry is recorded as “cell-permeable”.
For `COc1ccc(Nc2ncnc3c2cnn3Cc2ccc(C)cc2)cc1` [Compound C9], in series [1], the accumulation inside cells was determined as 5 fold, the “decrease” value is recorded as “about 2 folds”, the “concentration inside cells compared with the medium” value is given as “higher than those in the medium” and the cell permeability result is “cell-permeable”. In addition, the plasma concentration reached in series [2] (intraperitoneal injection, 100 mg/kg) came out at 38 µM. The maximal plasma concentration in series [2] (oral gavage, 100 mg/kg) worked out at 5.8 µM. Besides, in series [3], the “Rb phosphorylation at the site T821 by CDK2” value was “failed to inhibit”. For the same compound, the “Rb phosphorylation at the site S811 by CDK4/6” value in series [4] was “failed to inhibit”.
As to `Nc1cccc(Nc2ncnc3c2cnn3Cc2ccccc2)c1` [Compound C9a], the “oral drug availability compared to C9” value in series [2] (oral gavage) is given as “improved oral drug availability”. For the same compound, the “Rb phosphorylation at the site T821 by CDK2” value in series [3] is listed as “failed to inhibit”. The “Rb phosphorylation at the site S811 by CDK4/6” value in series [4] was “failed to inhibit”.
As to `Cn1cc(C(c2ccc(O)c(O)c2O)c2cn(C)c3ccccc23)c2ccccc21` [Compound C11], in series [1], the “decrease” value is “about 2 folds”, the “concentration inside cells compared with the medium” value was “higher than those in the medium” and the cell permeability result is given as “cell-permeable”.
